# Structures can show the parent of a compound that is named as a salt.
# System: colon cancer cell lines HCT 116, p53 KO, HT29, SW480, DLD1, PUMA KO
# Assay: CPT-induced apoptosis in colon cancer cell lines (nuclear fragmentation assay)
# Format: cell-based, human
# Settings: CPT 500 nM 24 h, PUMAi 25 uM; p53 WT, null, mutant or PUMA null lines
# Procedure: (FIG. 10A) Structure of the PUMA inhibitor lead compound (PUMAi). (FIG. 10B) Lysates of 293 cells transfected with individual plasmids for 24 hours were mixed in the indicated combinations. Lysates were incubated with vehicle or PUMA inhibitor (PUMAi, 25 μM) for 15 min before immunoprecipitation with an anti-HA antibody. The HA-bound proteins and input were analyzed by western blotting. (FIG. 10C) Lysates of 293 cells transfected with individual plasmids for 24 h were mixed in the indicated combinations. Lysates were incubated with vehicle or PUMA Inhibitor (PUMAi, 25 μM) for 15 min before immunoprecipitation with an anti-HA antibody. The HA-bound proteins and input were analyzed by western blotting. (FIG. 10D) Indicated colon cancer cell lines were treated with camptothecin (CPT, 500 nM) for 24 h. […] Apoptosis was measured by nuclear fragmentation assay. […] (FIG. 10E) Cells were treated as in D for 24 h and analyzed by western blotting. […]
# After treatment, floating and adhering cells were collected and stained in a solution containing 3.7% formaldehyde, 0.5% NP-40, and Hoechst 33258 (10 ug/ml) (Molecular Probes) in PBS. Apoptosis was assessed through microscopic visualization of condensed and fragmented nuclei, as previously described (Yu J. et al., Proc Natl Acad Sci USA (2003) 100:1931-36, incorporated herein by reference). A minimum of 300 cells per treatment were analyzed in triplicate. […]
structure (smiles),measurement,value
"OCCN1CCN(CC(O)COc2ccc3ccccc3c2)CC1 (stereo not shown) [PUMAi, 1-[4-(2-hydroxyethyl)-1-piperazinyl]-3-(2-naphthyloxy)-2-propanol dihydrochloride]",camptothecin (CPT)-induced apoptosis in colon cancer cell lines,did not reduce camptothecin (CPT)-induced apoptosis
